Earlier results, collected in patent US20090016973A1, “Composition and Method for the Prevention of Oral Disease” (MICROPURE, INC., priority 2007, published 2009).

Key:
[1] = tested on: protein synthesis; conditions: Benarde et al., 1967
[2] = tested on: Escherichia coli; conditions: Berg et al., 1986; leading to cell death
[3] = tested on: dehydrogenase enzymes; conditions: within the first 5 seconds of reaction; Roller et al., 1986
[4] = tested on: protein synthesis; conditions: Roller et al., 1986

In the case of `[O][Cl+][O-]` [chlorine dioxide], the “effect on protein synthesis” value [1] is given as “abrupt inhibition”, the “permeability control of the membrane” value [2] is given as “impaired” and the “inhibition of total dehydrogenase enzymes” value [3] is given as “inhibited completely”. The “inhibition of protein synthesis” value [4] was “partially inhibited”.
